# Tested on: T. cruzi intracellular amastigotes in H9c2 cells
# Assay: Rate-of-Kill (RoK) high-content imaging assay, amastigotes per cell (AM/CELL) and curve descriptors
# Type: cell-based, Trypanosoma cruzi
# Set-up: key to ME_24h / ME_48h / ME_72h: % reduction in parasite burden (cidal response); t50pct_MCC50 / t50pct_Cmax: unit not given here
# Conditions: for ME_24h: 24h; for ME_48h: 48h; for ME_72h: 72h; for AM/CELL NORM: sheet figure 4 A; for t50%_Cmax / tlag_Cmax / t50pct_Cmax: at Cmax; for ME_24h (%): maximum effect at 24 h; for ME_24h (%) / ME_48h (%) / ME_72h (%): RoK assay; for ME_48h (%): maximum effect at 48 h; for ME_72h (%): maximum effect at 72 h; for ME 24h (maximum effect at 24 hours, intracellular amastigotes): maximum percentage of parasite burden reduction reached by any concentration
# Outline: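 H9c2 cardiomyocytes infected with T. cruzi trypomastigotes (MOI 8, 18 h), then compounds tested at 5 μM single shot or 11-point 1/3 dilution from 50 μM. DRAQ5-stained nuclei imaged over a time course. Amastigotes per cell normalised to infected cells at 4 h (0%) and non-infected cells (100%).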
Structure (SMILES),ME_24h (figure 5),ME_48h (figure 5),ME_72h (figure 5),MCC50 (RoK curve descriptor),MCCE (RoK curve descriptor),AM/CELL NORM (Time 4),AM/CELL NORM (Time 24),AM/CELL NORM (Time 48),AM/CELL NORM (Time 72),t50%_Cmax,tlag_Cmax,t50pct_Cmax (figure 5),tlag_Cmax (figure 5),t50%_MCC50 (at MCC50),tlag_MCC50 (at MCC50),"t50pct_MCC50 (at MCC50, figure 5)","tlag_MCC50 (at MCC50, figure 5)",MCCE (figure 5),ME_24h (%),ME_48h (%),further results
Cc1c(C(=O)NCCCCn2ccnc2)oc2c(C)cccc12 [TCMDC-143304],-97.6451,-43.6144,81.5916,1.9 µM,0.6 µM,-4.678,-97.6451,-43.6144,60.7007,72.0 h,24.0 h,72,24,72.0 h,48.0 h,72,48,0.6173,-97.7%,-43.6%,"MCC50 (figure 5, in µM): 1.852; ME_72h (%): 81.6%; ME 24h (maximum effect at 24 hours, intracellular amastigotes): -97.6451%"
COc1ccc(C(=O)Nc2cc(C(F)(F)F)ccc2N2CCOCC2)c(OC)c1 [TCMDC-143310],64.6908,80.1309,94.1302,1.9 µM,0.6 µM,-57.2428,64.6908,80.1309,94.1302,24.0 h,4.0 h,24,4,72.0 h,4.0 h,72,4,0.6173,64.7%,80.1%,"MCC50 (figure 5, in µM): 1.852; ME_72h (%): 94.1%; ME 24h (maximum effect at 24 hours, intracellular amastigotes): 64.6908%"
FC(F)(F)c1cc(C2CCCN(Cc3c[nH]c4ccccc34)C2)nc2ncnn12.O=C(O)C(O)C(O)C(=O)O (stereo not drawn) [TCMDC-143311],20.357,59.0796,83.5796,50.0 µM,16.7 µM,-4.224,20.357,59.0796,83.5796,48.0 h,4.0 h,48,4,48.0 h,4.0 h,48,4,16.6667,20.4%,59.1%,"MCC50 (figure 5): 50 µM; ME_72h (%): 83.6%; ME 24h (maximum effect at 24 hours, intracellular amastigotes): 20.357%"

# Source: paper PMC8318231, “Rate-of-Kill (RoK) assays to triage large compound sets for Chagas disease drug discovery: Application to GSK Chagas Box” (PLoS Neglected Tropical Diseases, 2021)
